Results published in patent publication EP4786454A1, “HETEROARYL DERIVATIVE AND USE THEREOF” (priority 2023, dated 2025).

Target: T1, hKCNQ2/3 (Homo sapiens, UniProt O43525+O43526)
T1 construct: expressed in transfected cells; host or cells: CHO
Experiment: hKCNQ2/3 thallium flux assay (FLIPR)
Format: cell-based
Details: agonistic effect, CHO cell line stably expressing hKCNQ2/3
Source text: The present disclosure also provides the following assay methods: • Assay method 1: hKCNQ2/3 thallium flux assay • Purpose of the assay: To determine the in vitro concentration-response relationship of the compounds in a CHO cell line stably expressing hKCNQ2/3 using FLIPR thallium flux assay.
CHO cells stably transfected with hKCNQ2/3.
The cell line was passaged three times a week at a split ratio of 1:2 to 1:3. When the cells grew to a confluence degree of greater than 80% in a T-75 cell flask, they were digested with 0.25% trypsin-EDTA solution for about 1 minute, and then the cells were transferred from the cell flask for passage. According to the split ratio, the cells were transferred to another T-75 cell flask containing complete cell growth culture medium. Note: In order to maintain the logarithmic growth of cells, the cell growth should be maintained in a subconfluent monolayer state. The cells were passaged every 2 to 3 days according to the cell doubling time.
• (1) Day 1, cell preparation: The cells were digested according to the above method, and the cell density and viability were determined using Cell Countess. The volume of the single-cell suspension was adjusted with complete cell growth culture medium. Then, the hKCNQ2/3_CHO cells were seeded at a density of approximately 20,000 cells/well (30 µL/well) into a PDL-precoated 384-well plate. Then, the plate was incubated at 37 °C with 5% CO2 humidified air in an incubator overnight. • (2) Day 2, compound preparation: A test compound was diluted to a storage concentration with dimethyl sulfoxide (DMSO), and stored in a freezer at -20 °C. A compound addition program was set up on the ECHO liquid workstation, and the compound was added to the plate using the ECHO liquid workstation. A positive control was prepared using Retigabine (RTG) with a maximum concentration of 100 µM, which was subjected to a 3-fold dilution, resulting in a total of 9 doses constituting the plate map required for plating. Prepare the plate using a stimulation buffer containing 5 mM K^+ and 1 mM Tl^+. Note: 1) K2SO4 and Tl2SO4 were prepared in a 1× chloride-free buffer. When different voltage-gated potassium channels were involved, the concentrations of Tl^+ and K^+ were needed to be adjusted. The concentration of Tl^+ was approximately 0.5 mM to 5 mM, and the concentration of K^+ was approximately 5 mM to 30 mM. 2) Each 1 mM solution of K2SO4 and Tl2SO4 contained 2 mM K^+ and Tl^+. The final concentration should be calculated based on the ion concentrations. 3) TlCl was easily precipitated and a chloride-free buffer was required. • (3) Day 2, assay testing: When the cells reached the confluence degree, the cell analysis plate was taken out from the incubator. The assay buffer was prepared and the Tl^+ dye (Molecular Devices # R8222) was diluted. The culture medium was discarded using the liquid workstation Bravo and 25 µL of Tl^+ dye was added to each well. The plate was incubated for 1 hour, and then the cell analysis plate, composite plate, and FLIPR tip were placed in FLIPR^TETRA (Molecular Devices, USA) for FLIPR assay. The tip was set up, and then the baseline was read for 60 seconds. Then, 12.5 µL from the composite plate (3×) was added to the cell analysis plate, and the data were recorded for at least 5 minutes at the same time. • (4) Data processing: The maximum signal was generated with FLIPR software. Excel (2013) and Prism 6.01 were used for data analysis. The data quality control was performed with S/B > 2.00 and Z-factor > 0.50. IC50 or EC50 was defined as the midline between the lowest and the highest plateaus, and it was calculated using a four-parameter logistic model with Prism 6.01.
Purpose of the assay: To determine the in vitro concentration-response relationship of the compounds in a CHO cell line stably expressing hKCNQ2/3 using FLIPR thallium flux assay. […]

T1 sequence (O43525 whole entry): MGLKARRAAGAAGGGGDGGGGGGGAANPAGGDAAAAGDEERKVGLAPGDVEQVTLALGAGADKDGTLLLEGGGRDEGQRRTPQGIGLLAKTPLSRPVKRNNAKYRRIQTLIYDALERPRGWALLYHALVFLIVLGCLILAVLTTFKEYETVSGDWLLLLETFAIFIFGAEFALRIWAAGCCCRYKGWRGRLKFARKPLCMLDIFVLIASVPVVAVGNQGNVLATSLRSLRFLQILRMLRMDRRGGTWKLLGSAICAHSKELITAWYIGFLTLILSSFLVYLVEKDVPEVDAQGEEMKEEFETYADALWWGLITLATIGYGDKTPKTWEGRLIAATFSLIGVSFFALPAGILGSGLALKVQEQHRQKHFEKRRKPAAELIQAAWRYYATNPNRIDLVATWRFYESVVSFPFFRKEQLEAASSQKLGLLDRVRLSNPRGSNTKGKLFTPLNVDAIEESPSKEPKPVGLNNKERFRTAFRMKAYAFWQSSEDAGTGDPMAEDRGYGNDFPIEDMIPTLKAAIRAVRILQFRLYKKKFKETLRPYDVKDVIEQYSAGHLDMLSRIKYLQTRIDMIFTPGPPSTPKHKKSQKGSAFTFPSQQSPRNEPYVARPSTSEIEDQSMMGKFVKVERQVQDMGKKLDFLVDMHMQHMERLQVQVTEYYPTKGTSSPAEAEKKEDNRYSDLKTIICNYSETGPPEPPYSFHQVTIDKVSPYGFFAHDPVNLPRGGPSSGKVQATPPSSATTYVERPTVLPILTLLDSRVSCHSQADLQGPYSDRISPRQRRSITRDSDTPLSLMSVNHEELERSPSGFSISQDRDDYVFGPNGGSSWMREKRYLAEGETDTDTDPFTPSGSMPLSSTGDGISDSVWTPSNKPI
T1 sequence (O43526 whole entry): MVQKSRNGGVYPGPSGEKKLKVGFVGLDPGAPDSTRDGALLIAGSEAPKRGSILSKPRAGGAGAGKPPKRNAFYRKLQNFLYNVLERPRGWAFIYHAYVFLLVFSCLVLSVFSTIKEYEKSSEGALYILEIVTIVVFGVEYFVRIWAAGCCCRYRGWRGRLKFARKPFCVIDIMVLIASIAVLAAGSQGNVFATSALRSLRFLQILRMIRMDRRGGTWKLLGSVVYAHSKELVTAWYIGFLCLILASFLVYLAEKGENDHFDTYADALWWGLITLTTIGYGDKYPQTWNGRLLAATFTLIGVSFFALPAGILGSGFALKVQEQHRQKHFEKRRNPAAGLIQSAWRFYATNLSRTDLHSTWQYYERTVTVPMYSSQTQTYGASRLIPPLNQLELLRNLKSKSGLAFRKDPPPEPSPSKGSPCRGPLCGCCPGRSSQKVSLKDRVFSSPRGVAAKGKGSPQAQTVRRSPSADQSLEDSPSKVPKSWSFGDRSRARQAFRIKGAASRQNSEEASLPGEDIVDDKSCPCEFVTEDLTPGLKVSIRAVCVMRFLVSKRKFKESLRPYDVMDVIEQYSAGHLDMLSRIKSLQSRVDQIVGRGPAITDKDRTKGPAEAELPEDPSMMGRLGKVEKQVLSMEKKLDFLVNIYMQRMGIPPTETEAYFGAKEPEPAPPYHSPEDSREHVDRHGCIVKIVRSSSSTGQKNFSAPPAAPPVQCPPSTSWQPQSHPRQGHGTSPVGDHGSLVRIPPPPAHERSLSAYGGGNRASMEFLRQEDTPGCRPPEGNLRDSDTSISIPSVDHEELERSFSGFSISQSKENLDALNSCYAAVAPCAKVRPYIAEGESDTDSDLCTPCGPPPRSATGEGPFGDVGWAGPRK

SMILES | EC50 [nM]
CC(C)(C)CC(=O)Nc1nc2c(F)cc(C#N)cn2c1C1=CCCC1 [Compound 3] | 480
CC(C)(C)CC(=O)Nc1nc2c(F)cc(C#N)cn2c1C12CC(C1)C2 [Compound 5] | 200
CC(C)(C)CC(=O)Nc1nc2c(C(F)(F)F)cc(C#N)cn2c1C12CC(C1)C2 [Compound 6] | 710
